In PubChem BioAssay AID248 (DTP/NCI, 2004) one finds T/C data, which are given here for 18 compounds.

The experiment has as its system L1210 leukemia ip in BDF1 mice, survival T/C. In words: NCI In Vivo Anticancer Drug Screen. Data for tumor model L1210 Leukemia (intraperitoneal) in B6D2F1 (BDF1) mice. The note with it: endpoint: mean survival time, higher = longer survival. The gist of the method: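 Value reflects the ratio of survival in compound-treated mice to survival in vehicle-treated controls, with both groups carrying the same transplanted tumor.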

[1] abbreviates: dose: 100.0 mg/kg/injection, schedule: Q01DX009 (ip), vehicle: Klucel (hydroxypropylcellulose) (HPC).
[2] abbreviates: dose: 100.0 mg/kg/injection, schedule: Q01DX009 (ip), vehicle: saline with Tween-80.
Where [3] appears, read: dose: 100.0 mg/kg/injection, schedule: Q04DX003 (ip), vehicle: saline with Tween-80.
The mark [4] stands for this setting: dose: 200.0 mg/kg/injection, schedule: Q01DX009 (ip), vehicle: Klucel (hydroxypropylcellulose) (HPC).
Setting [5] is: dose: 200.0 mg/kg/injection, schedule: Q01DX009 (ip), vehicle: saline with Tween-80.
[6] abbreviates: dose: 200.0 mg/kg/injection, schedule: Q04DX003 (ip), vehicle: saline with Tween-80.
Where [7] appears, read: dose: 400.0 mg/kg/injection, schedule: Q01DX009 (ip), vehicle: Klucel (hydroxypropylcellulose) (HPC).
Setting [8] is: dose: 400.0 mg/kg/injection, schedule: Q01DX009 (ip), vehicle: saline with Tween-80.
Setting [9] is: dose: 100.0 mg/kg/injection, schedule: Q04DX003 (ip), vehicle: Klucel (hydroxypropylcellulose) (HPC).
Where [10] appears, read: dose: 200.0 mg/kg/injection, schedule: Q04DX003 (ip), vehicle: Klucel (hydroxypropylcellulose) (HPC).
The mark [11] stands for this setting: dose: 25.0 mg/kg/injection, schedule: Q01DX009 (ip), vehicle: saline.
The mark [12] stands for this setting: dose: 100.0 mg/kg/injection, schedule: Q01DX001 (ip), vehicle: carboxymethylcellulose (CMC).
Setting [13] is: dose: 200.0 mg/kg/injection, schedule: Q01DX001 (ip), vehicle: carboxymethylcellulose (CMC).
Setting [14] is: dose: 400.0 mg/kg/injection, schedule: Q01DX001 (ip), vehicle: carboxymethylcellulose (CMC).

Where “and” joins values, the source holds several entries; their conditions need not be identical. Equal entries are not always repeated. Inconclusive results and toxic doses are left out.

Turning to `CC1(c2ccco2)NC(=O)NC1=O` (centres undefined), the T/C is 94 % of control under setting [1]; 91 % of control under setting [2]; 111 % of control and 101 % of control under setting [3]; 100 % of control under setting [4]; 95 % of control under setting [5]; 104 % of control and 114 % of control under setting [6]. Moreover, the T/C under setting [7] was 105 % of control; the T/C under setting [8] was 98 % of control; the T/C (dose: 400.0 mg/kg/injection, schedule: Q04DX003 (ip), vehicle: saline with Tween-80) was 111 % of control and 101 % of control.

As to `N/C(=C\C(=O)c1ccccc1)C(=O)c1ccccc1`, the T/C by setting is: under setting [9], 103 % of control; under setting [10], 108 % of control.

As to `C=CC[Se]c1ncnc2c1c(C#N)cn2C1OC(CO)C(O)C1O` (centres undefined), the T/C by setting is: (dose: 6.25 mg/kg/injection, schedule: Q01DX009 (ip), vehicle: saline) 103 % of control; (dose: 12.5 mg/kg/injection, schedule: Q01DX009 (ip), vehicle: saline) 107 % of control; under setting [11], 92 % of control.

Take `CCOC(=O)C(C)C1=CCCc2c(C)ccc(C)c21` (centres undefined): the T/C was 91 % of control under setting [1]; 98 % of control under setting [9]; 94 % of control under setting [4]; 97 % of control under setting [10]; 94 % of control under setting [7]; 101 % of control (dose: 400.0 mg/kg/injection, schedule: Q04DX003 (ip), vehicle: Klucel (hydroxypropylcellulose) (HPC)).

For `O=C(c1cc(Cl)cc(Cl)c1)N1CC1`, the T/C under setting [11] was 100 % of control; the T/C (dose: 50.0 mg/kg/injection, schedule: Q01DX009 (ip), vehicle: saline) is 91 % of control; the T/C (dose: 100.0 mg/kg/injection, schedule: Q01DX009 (ip), vehicle: saline) was 90 % of control; the T/C (dose: 200.0 mg/kg/injection, schedule: Q01DX009 (ip), vehicle: saline) is 100 % of control; the T/C (dose: 400.0 mg/kg/injection, schedule: Q01DX009 (ip), vehicle: saline) was 96 % of control.

Turning to `COc1ccc(C(C)=O)c(OC)c1C`, the T/C is 95 % of control (dose: 100.0 mg/kg/injection, schedule: Q04DX003 (ip), vehicle: saline); 90 % of control (dose: 200.0 mg/kg/injection, schedule: Q04DX003 (ip), vehicle: saline); 98 % of control (dose: 400.0 mg/kg/injection, schedule: Q04DX003 (ip), vehicle: saline).

As for `O=C1OC(/C=C/c2ccccc2)=NC/1=C\c1ccccc1O`, the T/C runs as follows: (dose: 100.0 mg/kg/injection, schedule: Q04DX002 (ip), vehicle: saline with Tween-80) 92 % of control; (dose: 200.0 mg/kg/injection, schedule: Q04DX002 (ip), vehicle: saline with Tween-80) 92 % of control; (dose: 400.0 mg/kg/injection, schedule: Q04DX002 (ip), vehicle: saline with Tween-80) 89 % of control.

In the case of `CC1([N+](=O)[O-])COP(=O)(Nc2cccc(Cl)c2)OC1` (centres undefined), the T/C under setting [12] was 95 % of control, the T/C under setting [13] is 95 % of control and the T/C under setting [14] was 101 % of control.

`CC1=NCCc2c1cc1c([nH]c3ccccc31)c2C`: the T/C is 106 % of control (dose: 14.0 mg/kg/injection, schedule: Q01DX Z (ip), vehicle: carboxymethylcellulose (CMC)); 107 % of control (dose: 28.0 mg/kg/injection, schedule: Q01DX Z (ip), vehicle: carboxymethylcellulose (CMC)); 121 % of control (dose: 44.0 mg/kg/injection, schedule: Q01DX009 (ip), vehicle: other); 115 % of control (dose: 44.0 mg/kg/injection, schedule: Q01DX009 (ip), vehicle: saline with Tween-80); 101 % of control (dose: 50.0 mg/kg/injection, schedule: Q01DX009 (ip), vehicle: saline with Tween-80); 113 % of control (dose: 56.0 mg/kg/injection, schedule: Q01DX Z (ip), vehicle: carboxymethylcellulose (CMC)). In addition, the T/C was 151 % of control (dose: 100.0 mg/kg/injection, schedule: Q01DX009 (ip), vehicle: other); 151 % of control under setting [2]; 110 % of control (dose: 100.0 mg/kg/injection, schedule: Q04DX003 (ip), vehicle: acetone); 110 % of control under setting [3]; 123 % of control (dose: 112.0 mg/kg/injection, schedule: Q01DX Z (ip), vehicle: carboxymethylcellulose (CMC)); 178 % of control (dose: 150.0 mg/kg/injection, schedule: Q01DX009 (ip), vehicle: saline with Tween-80). The T/C (dose: 177.0 mg/kg/injection, schedule: Q04DX003 (ip), vehicle: saline with Tween-80) was 122 % of control; the T/C under setting [5] was 101 % of control; the T/C (dose: 200.0 mg/kg/injection, schedule: Q04DX003 (ip), vehicle: acetone) is 102 % of control; the T/C under setting [6] was 115 % of control; the T/C (dose: 210.0 mg/kg/injection, schedule: Q01DX009 (ip), vehicle: other) is 98 % of control; the T/C (dose: 266.0 mg/kg/injection, schedule: Q04DX003 (ip), vehicle: saline with Tween-80) is 124 % of control.

`C=C[Si](C)(OCC)OCC`: the T/C is 93 % of control (dose: 100.0 mg/kg/injection, schedule: Q01DX001 (ip), vehicle: saline); 90 % of control (dose: 200.0 mg/kg/injection, schedule: Q01DX001 (ip), vehicle: saline); 101 % of control (dose: 400.0 mg/kg/injection, schedule: Q01DX001 (ip), vehicle: saline).

`COc1cc(CC2c3cccc(Oc4ccc(C)cc4)c3CCN2C)ccc1Oc1ccc(C)cc1` (centres undefined): the T/C (dose: 100.0 mg/kg/injection, schedule: Q04DX002 (ip), vehicle: other) was 96 % of control; the T/C (dose: 200.0 mg/kg/injection, schedule: Q04DX002 (ip), vehicle: other) is 100 % of control; the T/C (dose: 400.0 mg/kg/injection, schedule: Q04DX002 (ip), vehicle: other) is 100 % of control.

As to `C[N+](C)(C)CCNC(=O)C12CC3CC(CC(C3)C1)C2`, the T/C (dose: 25.0 mg/kg/injection, schedule: Q04DX002 (ip), vehicle: saline) was 89 % of control; the T/C (dose: 50.0 mg/kg/injection, schedule: Q04DX002 (ip), vehicle: saline) was 94 % of control; the T/C (dose: 100.0 mg/kg/injection, schedule: Q04DX002 (ip), vehicle: saline) is 86 % of control.

Take `OC(c1nc2ccc(Cl)cc2[nH]1)C(O)c1nc2ccc(Cl)cc2[nH]1` (centres undefined): the T/C was 102 % of control (dose: 75.0 mg/kg/injection, schedule: Q01DX001 (ip), vehicle: other); 96 % of control (dose: 150.0 mg/kg/injection, schedule: Q01DX001 (ip), vehicle: other); 91 % of control (dose: 300.0 mg/kg/injection, schedule: Q01DX001 (ip), vehicle: other).

Take `COc1ccc(C(=O)C(C)C(C)=O)c(OCc2ccccc2)c1OC` (centres undefined): the T/C was 96 % of control under setting [12], 98 % of control under setting [13] and 93 % of control under setting [14].

In the case of `O=[N+]([O-])c1ccc(/C=C/C=C/c2ccccc2)cc1`, the T/C reads like this: under setting [2], 105 % of control; under setting [5], 92 % of control; under setting [8], 89 % of control.

On to `Cc1cc(=O)[nH]c(C(F)(F)F)n1`, for which the T/C runs as follows: (dose: 44.0 mg/kg/injection, schedule: Q01DX Z (ip), vehicle: methylcellulose (MC)) 93 % of control; (dose: 66.0 mg/kg/injection, schedule: Q01DX Z (ip), vehicle: methylcellulose (MC)) 107 % of control; (dose: 100.0 mg/kg/injection, schedule: Q01DX Z (ip), vehicle: methylcellulose (MC)) 102 % of control.

Turning to `O=C(O)c1cc(Cc2c[nH]c(=O)[nH]c2=O)ccc1O`, the T/C was 109 % of control (dose: 50.0 mg/kg/injection, schedule: Q01DX005 (ip), vehicle: water); 98 % of control (dose: 100.0 mg/kg/injection, schedule: Q01DX005 (ip), vehicle: water); 102 % of control (dose: 200.0 mg/kg/injection, schedule: Q01DX005 (ip), vehicle: water).

Consider `COc1cccc(C(=O)O)c1N`, for which the T/C (dose: 25.0 mg/kg/injection, schedule: Q01DX001 (ip), vehicle: Klucel (hydroxypropylcellulose) (HPC)) is 102 % of control; the T/C (dose: 50.0 mg/kg/injection, schedule: Q01DX001 (ip), vehicle: Klucel (hydroxypropylcellulose) (HPC)) is 98 % of control; the T/C (dose: 100.0 mg/kg/injection, schedule: Q01DX001 (ip), vehicle: Klucel (hydroxypropylcellulose) (HPC)) was 91 % of control.
